Source: patent US6339075B1, “Use of dextran and other polysaccharides to improve mucus clearance” (The University of British Columbia, priority 1997, dated 2002)

Tested on: healthy mongrel dogs
Experiment: Arginine aerosol with or without dextran in anaesthetized dogs: PD, TMV, mucus rigidity
Format: in vivo, dog
Method: Arginine/arg. HCl was prepared as described by Solomons (Pediatrics 1971;47:384), making a stock solution of 290 mOsm, pH 7.4. Two dilutions were prepared, 97 and 29 mOsm, the balance being Ringers. The solutions were delivered by Pari jet nebulizer to 8 healthy mongrel dogs anaesthetized with pentobarbital and intubated. After 30 min. Ringer aerosol, tracheal mucus velocity (TMV by charcoal particle transport) and potential difference (PD by agar bridge) were measured under bronchoscopic control, and mucus for viscoelasticity analysis (magnetic rheometer) was collected on the endotracheal tube. On one occasion, increasing arginine conc. were aerosolized hourly, following Ringer control. On a second occasion, the same arginine solutions were used, but with 65 mg/ml low m. w. dextran (Polydex, lot #2764) added.

With `N=C(N)NCCC[C@H](N)C(=O)O` [arginine, L-arginine] the TMV (arginine aerosol with or without dextran, increased nonsignificantly from 11.9±2.2 (Ringer)) was 14.7±2.9 mm/min, the “mucus rigidity (log G*) decreased” value (arginine aerosol without dextran) was “not” and the “lumen-negative PD” value (increasing arginine aerosol, with or without added dextran 65 mg/ml, Ringer −14.3±1.4 mV) was −20.1±3.6 mV.
